Results as given in paper PMC6748449, “HupA, the main undecaprenyl pyrophosphate and phosphatidylglycerol phosphate phosphatase in Helicobacter pylori is essential for colonization of the stomach” (PLoS Pathogens, 2019).

What was measured:
LpxE (HP0021) = LpxE (HP0021) (Helicobacter pylori, UniProt O24866); assay: phosphate release, malachite green; assay type: biochemical; details: 50 uM substrate, 0.2% DDM, pH 7.4, 37 °C
LpxF (HP1580) = target: T1, LpxF (HP1580) (Helicobacter pylori, UniProt O26100); assay: phosphate release, malachite green; assay type: biochemical; details: 50 uM substrate, 0.2% DDM, pH 7.4, 37 °C; very low activity
T1 construct: gene HP_1580
T1 sequence (O26100 entry or part of it): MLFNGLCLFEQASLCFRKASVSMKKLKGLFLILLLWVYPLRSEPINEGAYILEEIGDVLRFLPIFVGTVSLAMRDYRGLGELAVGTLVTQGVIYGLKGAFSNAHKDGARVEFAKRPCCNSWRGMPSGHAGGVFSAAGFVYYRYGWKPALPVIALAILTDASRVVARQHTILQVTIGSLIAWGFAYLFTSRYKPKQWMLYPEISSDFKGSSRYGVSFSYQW

Sequence of LpxE (HP0021) (O24866 whole entry): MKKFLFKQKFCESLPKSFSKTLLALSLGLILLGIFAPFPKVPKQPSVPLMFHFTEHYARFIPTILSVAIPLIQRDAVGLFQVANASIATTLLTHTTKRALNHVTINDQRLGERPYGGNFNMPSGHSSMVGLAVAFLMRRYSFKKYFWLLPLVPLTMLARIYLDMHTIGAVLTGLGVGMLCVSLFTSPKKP

CC(C)=CCC/C(C)=C/CC/C(C)=C/COP(=O)(O)OP(=O)(O)O [C15-PP]
phosphate release, malachite green (LpxE (HP0021)): LpxE had similar substrate specificity as HupA, except for C5-PP | phosphate release, malachite green (LpxF (HP1580)): LpxF only showed very low activity towards C15-PP and PGP
